PMC10079954, “Rational design of phase separating peptides based on phase separating protein sequence of p53” (Scientific Reports, 2023)

Assays:
[1] = test system: p53 monomer (L344P) mutant; assay: Recruitment (enrichment index) of p53 monomer into designed peptide droplets; set-up: species or system human; conditions: 0.9–1.8 mM designed peptide, 0.1 µM Alexa488-labeled p53, 25 mM HEPES, 0.5 mM EDTA, 1 mM DTT, pH 7.0, 22 °C; ± standard error; SEM
Text: (§1) We prepared p53 tetramer, dimer, and monomer mutants, as described previously[8],[37],[50]. For the p53 tetramer, a thermostable and cysteine-modified human p53 mutant (C124A, C135V, C141V, W146Y, C182S, V203A, R209P, C229Y, H233Y, Y234F, N235K, Y236F, T253V, N268D, C275A, C277A, and K292C) was used[50]. The dimer and monomer mutants of p53 corresponded to L344A and L344P of the tetramer sequence, respectively[8],[37]. These p53 mutants were expressed with a glutathione S-transferase (GST) tag in E. coli and purified after cleavage of the GST tag, as described previously[50],[51]. The oligomeric state of p53 mutants was confirmed using a gel filtration column (Superdex 200; GE Healthcare). p53 mutants were labeled with Atto488 (ATTO-TEC) or Alexa488 (Thermo Fisher) using maleimide chemistry and then purified using a heparin column (GE Healthcare). We prepared Alexa488-labeled FUS-MBP as described previously[37],[39].
(§2) Recruitment evaluations were performed following the method described in our previous studies[37],[41]. Solutions containing 0.9–1.8 mM designed peptides, 0.1 µM Alexa488-labeled p53 mutants or Alexa488, 25 mM HEPES, 0.5 mM EDTA, and 1 mM DTT at pH 7.0 were used. The solutions were then incubated at 22 °C for five minutes. The aforementioned microscope was used with HILO illumination. To prevent photo-bleaching of the fluorescent samples, we used a laser power of 0.15 mW. The images were acquired at 22 °C. Using the ImageJ software, we calculated the EI values of the individual droplets as follows:2 EI=Idroplet/Isolution, where Idroplet and Isolution represent the average fluorescence intensities of the individual droplets and solutions near the droplets with background substitution, respectively.

[2] = test system: maltose binding protein-fused FUS (FUS-MBP); assay: Recruitment (enrichment index) of FUS-MBP into designed peptide droplets; conditions: 1 mM DPp53N-GSGS-D7, 100 nM Alexa488-labeled protein, 1 mM DTT, pH 7.0
Method: as §2, with “Solutions containing 0.9–1.8 mM designed peptides, 0.1 µM Alexa488-labeled p53 mutants or Alexa488, 25 mM HEPES, 0.5 mM EDTA, and 1 mM DTT at pH 7.0 were used.” left out
Fig. S10 p53 monomer is localized inside droplets of DPp53N-GSGS-D7, whereas FUS-MBP is localized in its droplet surfaces. Fluorescence images of Alexa488-labeled p53 monomer mutant (L344P) and FUS-MBP in droplet solution of non-labeled DPp53N-GSGS-D7. The solution containing 103 mM HEPES and 1 mM DTT, 100 nM Alexa488 labeled proteins, and 1 mM DPp53N-GSGS-D7 at pH 7.0 was used.
Fig. S13 Design and experimental verification of artificial PS peptides from PS protein FUS. […] (B) DIC and fluorescence images of the solution containing 4 mM FUS designed peptide and 120 mM HEPES at pH 7.0. […] (C) Fluorescence images of Alexa488-labeled FUS-MBP in non-labeled FUS-designed-peptide droplet solution. […]

[3] = Single-molecule fluorescence tracking (HILO) of labeled molecules in their droplets; format: physicochemical; conditions: Alexa488-labeled peptide 10–100 pM in 0.9 mM non-labeled peptide droplets; 25 mM HEPES, 0.5 mM EDTA, 45 mM NaCl, 150 mg/mL dextran, pH 7.0; linear fit of MSD (4D slope)
Method: We quantitatively characterized the liquid droplet properties of the four designed peptides and compared them with those of p53. We measured the fusion of the designed peptide droplets in the solution used for p53 droplets (Supplementary Fig. S4). In the presence of 45 mM NaCl and 150 mg/mL dextran, the fusion of droplets for the four designed peptides was observed within 0.2 s, which was much faster than that for p53 (3.7 min)[8]. This gap in the fusion period implies different intrinsic dynamic properties. We measured the movement of Alexa488-labeled peptides within non-labeled peptide droplets using single-molecule fluorescence microscopy with a highly inclined and laminated optical sheet (HILO) illumination[37],[41] (Fig. 3A). […]
Single-molecule measurements were performed following the method described in our previous studies[37],[41]. An inverted fluorescence microscope (IX-73; Olympus) with a total internal reflection fluorescence unit (IX3RFAEVAW; Olympus) was used[52],[53]. […] The fluorescence collected via the objective lens was detected using an EM-CCD camera (iXon Ultra 888, Andor). […] Images were recorded at intervals of 15–154 ms after reducing the number of observable molecules in the droplets by photobleaching within one minute. […]

[4] = test system: p53 tetramer; assay: Recruitment (enrichment index) of p53 tetramer into designed peptide droplets; set-up: species or system human; conditions: droplet interior regions, surface not included; no salt, pH 7.0
Text: as §1, §2

[5] = biological target: C-terminal peptide of p53; assay: Affinity of DPp53C1 to the C-terminal peptide of p53; format: binding

Row | Average EI of FUS-MBP, fold smaller than that of p53 monomer [2] | Average diffusion coefficient (D) in own droplets [3] | Kd [5] | Sequence | Enrichment index (EI) of p53 monomer (L344P) mutant in peptide droplets [1] | Decrease of average EI of p53 tetramer relative to p53 monomer [4]
1 | 2.2 fold | 0.26 ± 0.01 μm^2/s | – | RRRVVQRRRRGSGSDDDDDDD [DPp53N-GSGS-D7] | 22.3 ± 0.7 | 10.5 fold
2 | – | – | 10 µM | DDDASQEDDD [DPp53C1] | – | –
